Assay results: patent publication US20260306642A1, “STAT DEGRADERS AND USES THEREOF” (Recludix Pharma, Inc., priority 2023, published 2026)
Where two headings read alike, the source gives them in different places.

Key:
STAT3 = molecular target: T1, STAT3 (Homo sapiens, UniProt P40763); experiment: STAT3 Fluorescence Polarization (FP) Assay; assay type: binding
T1 construct: Recombinant STAT3 protein (STAT3(G127-I722))
Description: An FP assay was developed to determine IC50 values for test substances.
Recombinant STAT3 protein (STAT3(G127-I722)) at 25 nM was combined with a fluorescently labeled, phosphotyrosine peptide probe (5-FAM-GpYLPQTV-NH2) at 2 nM in FP buffer (10 mM HEPES pH 7.4, 50 mM NaCl, 1 mM EDTA, 0.05% Tween 20, 2 mM DTT). 50 μL of STAT3-probe mixture was added to serial diluted compounds in black, 96-well plates (Greiner BioOne 655076) to a final concentration of 1% DMSO. Reaction components were mixed, and FP was measured after 45-minute incubation at room temperature using a Tecan Spark multimode plate reader. FP signal (mP) was plotted against the log concentration of the test substances and IC50 values were calculated by nonlinear regression analysis using GraphPad Prism software. For STAT3 FP assay, A=≤100 nM; B=>100-1000 nM; C=>1-10 μM; and D=>10 μM.

STAT6 = molecular target: T2, STAT6 (Homo sapiens, UniProt P42226); experiment: STAT6 Fluorescence Polarization (FP) Assay; assay type: binding
T2 construct: Recombinant STAT6 protein (STAT6(W123-T658))
T2 sequence (P42226 123-658): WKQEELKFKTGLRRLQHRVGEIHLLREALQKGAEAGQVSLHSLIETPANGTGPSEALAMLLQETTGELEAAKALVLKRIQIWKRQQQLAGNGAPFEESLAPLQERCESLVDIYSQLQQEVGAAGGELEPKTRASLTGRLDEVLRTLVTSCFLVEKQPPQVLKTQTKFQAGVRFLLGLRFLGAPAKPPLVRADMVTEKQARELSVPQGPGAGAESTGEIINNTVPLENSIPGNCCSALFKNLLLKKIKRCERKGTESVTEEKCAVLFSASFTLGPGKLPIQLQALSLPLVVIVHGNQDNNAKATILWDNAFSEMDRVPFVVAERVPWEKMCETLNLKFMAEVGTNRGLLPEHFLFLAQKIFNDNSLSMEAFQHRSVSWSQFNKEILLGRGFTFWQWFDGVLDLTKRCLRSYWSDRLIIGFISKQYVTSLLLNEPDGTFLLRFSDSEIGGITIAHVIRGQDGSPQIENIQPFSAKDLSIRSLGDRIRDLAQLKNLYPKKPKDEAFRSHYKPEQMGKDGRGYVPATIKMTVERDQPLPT
Description: An FP assay was developed to determine IC50 values for test substances. Recombinant STAT6 protein (STAT6(W123-T658)) at 250 nM was combined with a fluorescently labeled, phosphotyrosine peptide probe (5-FAM-ApYKPFQDLI-NH2) at 2 nM in FP buffer (10 mM HEPES pH 7.4, 50 mM NaCl, 1 mM EDTA, 0.05% Tween 20, 2 mM DTT). 50 μL of STAT6-probe mixture was added to serial diluted compounds in black, 96-well plates (Greiner BioOne 655076) to a final concentration of 1% DMSO. Reaction components were mixed, and FP was measured after 45-minute incubation at room temperature using a Tecan Spark multimode plate reader. FP signal (mP) was plotted against the log concentration of the test substances and IC50 values were calculated by nonlinear regression analysis using GraphPad Prism software. For STAT6 FP assay, A=≤300 nM; B=>300-3000 nM; C=>3-30 μM; and D=>30 μM.

pSTAT3 = pSTAT3 (Homo sapiens, UniProt P40763); experiment: MSD-pSTAT-PBMC Assay (pSTAT3, IL-6 stimulated); assay type: cell-based
Sequence of pSTAT3 (P40763 whole entry): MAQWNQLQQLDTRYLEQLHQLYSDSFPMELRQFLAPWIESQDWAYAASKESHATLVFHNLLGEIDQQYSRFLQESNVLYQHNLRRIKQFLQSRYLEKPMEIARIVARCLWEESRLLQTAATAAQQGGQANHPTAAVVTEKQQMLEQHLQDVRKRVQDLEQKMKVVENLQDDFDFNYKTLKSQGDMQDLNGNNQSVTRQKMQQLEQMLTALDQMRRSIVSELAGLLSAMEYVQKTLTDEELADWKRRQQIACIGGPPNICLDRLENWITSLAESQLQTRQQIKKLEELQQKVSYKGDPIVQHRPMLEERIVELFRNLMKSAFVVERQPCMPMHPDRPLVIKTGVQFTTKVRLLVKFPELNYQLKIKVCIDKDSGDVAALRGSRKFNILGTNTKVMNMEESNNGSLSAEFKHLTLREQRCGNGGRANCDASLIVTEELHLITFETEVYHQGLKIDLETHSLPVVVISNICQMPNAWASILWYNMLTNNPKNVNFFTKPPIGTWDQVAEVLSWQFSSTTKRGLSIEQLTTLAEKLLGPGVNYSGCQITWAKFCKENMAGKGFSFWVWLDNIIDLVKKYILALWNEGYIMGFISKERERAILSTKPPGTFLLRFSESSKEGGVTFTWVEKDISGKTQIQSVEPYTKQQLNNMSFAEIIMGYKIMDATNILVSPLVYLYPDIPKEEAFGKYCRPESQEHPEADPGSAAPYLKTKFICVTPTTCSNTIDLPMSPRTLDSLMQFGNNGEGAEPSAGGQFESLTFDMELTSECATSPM
Excerpt: Cryopreserved Peripheral Blood Mononuclear Cells (PBMC) are from AllCells. Recombinant Human IL-4 and IL-6 are from Peprotech. Mouse monoclonal anti-STAT3 antibody, rabbit monoclonal anti-pY705-STAT3 antibody, rabbit monoclonal Anti-pY641-STAT6 antibody, and lysis buffer are from Cell Signaling Technology (CST). Mouse monoclonal anti-STAT6 antibody is from BioLegend. Assay plates, blocker, and anti-rabbit secondary antibody are from Meso Scale Discovery (MSD).
Cryopreserved PBMCs were thawed out and allowed to recover overnight in IMDM+10% heat-inactivated FBS prior to plating 50,000 (STAT3) or 25,000 (STAT6) cells per well in 96-well U-bottom tissue culture plates. Cells were treated with compound for 3 hrs, then stimulated with 10 ng/mL IL-6 (STAT3) or 1 ng/mL IL-4 (STAT6) for 10 min. Cells were then spun down and washed with ice-cold PBS prior to lysing the cell pellet with 1× lysis buffer (CST) with 1× HALT protease and phosphatase inhibitor cocktail (Thermo). Lysates were transferred to and incubated overnight at 4° C. with shaking in QuickPlex 96-well high bind assay plates (MSD) pre-coated overnight with 30 μL per well of […] mouse monoclonal anti-STAT3 antibody (STAT3) or 2 μg/mL mouse monoclonal anti-STAT6 antibody (STAT6) in 1× PBS, and pre-blocked for 1 hour with 3% Blocker-A (MSD). Captured protein in the assay plates were then washed and probed with 25 μL per well of […] rabbit monoclonal anti-pY705-STAT3 antibody (STAT3) or […] rabbit monoclonal Anti-pY641-STAT6 antibody (STAT6) in 1% Blocker-A for 1 hour at room temperature with shaking, then washed and probed with 25 ul per well of 1 ug/ml Sulfo-TAG Labeled Goat Anti-Rabbit Antibody (MSD) in 1% Blocker-A for 1 hour at room temperature with shaking. Assay plates were then washed and 150 μL of 1× Read Buffer-T (MSD) was added to each well prior to reading on an SQ120 MSD Plate Reader. Assay signal from each sample was subtracted by the signal from unstimulated control wells and normalized to DMSO control wells. IC50 values were calculated using Graph Pad Prism Dose-Response Nonlinear Regression with variable slope. For both pSTAT3 and pSTAT6 A=≤100 nM; B=>100-1000 nM; C=>1000-3000 nM; and D=>3 μM.

[1] = read-out: pSTAT3 IC50, compound 3 hrs, then 10 ng/mL IL-6 10 min, pY705-STAT3
[2] = compound 3 hrs, then 10 ng/mL IL-6 10 min, pY705-STAT3, read-out: pSTAT3 IC50

T1 sequence (P40763 127-722): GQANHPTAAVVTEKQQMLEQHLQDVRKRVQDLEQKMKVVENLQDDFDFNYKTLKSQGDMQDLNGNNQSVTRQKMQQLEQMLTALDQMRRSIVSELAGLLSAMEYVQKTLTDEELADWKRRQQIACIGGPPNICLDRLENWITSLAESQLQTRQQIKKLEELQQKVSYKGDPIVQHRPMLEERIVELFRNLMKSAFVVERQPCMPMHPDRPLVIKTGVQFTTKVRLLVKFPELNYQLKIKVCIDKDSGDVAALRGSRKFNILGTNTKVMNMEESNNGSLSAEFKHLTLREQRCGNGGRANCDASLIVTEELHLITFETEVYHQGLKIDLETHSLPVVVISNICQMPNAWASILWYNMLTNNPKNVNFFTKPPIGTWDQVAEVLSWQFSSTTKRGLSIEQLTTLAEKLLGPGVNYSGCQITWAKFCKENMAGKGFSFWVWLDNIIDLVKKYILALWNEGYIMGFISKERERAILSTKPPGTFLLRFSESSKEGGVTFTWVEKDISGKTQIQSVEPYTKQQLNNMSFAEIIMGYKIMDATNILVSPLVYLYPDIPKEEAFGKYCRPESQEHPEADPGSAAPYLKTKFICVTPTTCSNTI

Row | Structure (SMILES) | IC50 (pSTAT3; [2]) [µM] | IC50 (STAT3) [µM] | IC50 (STAT6) [µM] | IC50 (pSTAT3; [1]) [µM]
1 | O=C(COc1cccc2c1C(=O)N(C1CCC(=O)NC1=O)C2=O)NCCOCCOCC(=O)NC1(c2ccccn2)CN(C(=O)[C@@H]2CC[C@H]3CCCC[C@H](NC(=O)c4cc5cc(C(F)(F)P(=O)(O)O)ccc5s4)C(=O)N32)C1 (stereo partly drawn) [Compound 32, ((2-(((3S,6S,10aR)-3-(3-(2-(2-(2-(2-((2-(2,6-dioxopiperidin-3-yl)-1,3-dioxoisoindolin-4-yl)oxy)acetamido)ethoxy)ethoxy)acetamido)-3-(pyridin-2-yl)azetidine-1-carbonyl)-5-oxodecahydropyrrolo[1,2-a]azocin-6-yl)carbamoyl)benzo[b]thiophen-5-yl)difluoromethyl)phosphonic acid] |  | < 0.1 | 3 to 30 | > 3
2 | Cn1c(=O)n(C2CCC(=O)NC2=O)c2ccc(C#CCCC3CCN(c4ccncc4C4CN(C(=O)[C@@H]5CC[C@@H]6CCC[C@H](NC(=O)c7cc8cc([C@@H](F)P(=O)(O)O)ccc8s7)C(=O)N65)C4)CC3)cc21 (stereo partly drawn) [Compound 40, ((1S)-(2-(((3S,6S,9aS)-3-(3-(4-(4-(4-(1-(2,6-dioxopiperidin-3-yl)-3-methyl-2-oxo-2,3-dihydro-1H-benzo[d]imidazol-5-yl)but-3-yn-1-yl)piperidin-1-yl)pyridin-3-yl)azetidine-1-carbonyl)-5-oxooctahydro-1H-pyrrolo[1,2-a]azepin-6-yl)carbamoyl)benzo[b]thiophen-5-yl)fluoromethyl)phosphonic acid] |  | < 0.1 | > 30 | < 0.1
3 | O=C(COc1cccc2c1C(=O)N(C1CCC(=O)NC1=O)C2=O)NCCOCCOCCC(=O)NC1(c2ccccn2)CN(C(=O)[C@@H]2CC[C@H]3CCCC[C@H](NC(=O)c4cc5cc(C(F)(F)P(=O)(O)O)ccc5s4)C(=O)N32)C1 (stereo partly drawn) [Compound 30, ((2-(((3S,6S,10aR)-3-(3-(3-(2-(2-(2-((2-(2,6-dioxopiperidin-3-yl)-1,3-dioxoisoindolin-4-yl)oxy)acetamido)ethoxy)ethoxy)propanamido)-3-(pyridin-2-yl)azetidine-1-carbonyl)-5-oxodecahydropyrrolo[1,2-a]azocin-6-yl)carbamoyl)benzo[b]thiophen-5-yl)difluoromethyl)phosphonic acid] |  | < 0.1 | 3 to 30 | > 3
4 | Cc1ncsc1-c1ccc(CNC(=O)[C@@H]2C[C@@H](O)CN2C(=O)[C@@H](NCCCCOc2ccncc2C2CN(C(=O)[C@@H]3CC[C@@H]4CCC[C@H](NC(=O)c5cc6cc(C(F)(F)P(=O)(O)O)ccc6s5)C(=O)N43)C2)C(C)(C)C)cc1 [Compound 2, (difluoro(2-(((3S,6S,9aS)-3-(3-(4-(4-(((S)-1-((2S,4R)-4-hydroxy-2-((4-(4-methylthiazol-5-yl)benzyl)carbamoyl)pyrrolidin-1-yl)-3,3-dimethyl-1-oxobutan-2-yl)amino)butoxy)pyridin-3-yl)azetidine-1-carbonyl)-5-oxooctahydro-1H-pyrrolo[1,2-a]azepin-6-yl)carbamoyl)benzo[b]thiophen-5-yl)methyl)phosphonic acid] | > 3 | < 0.1 | 3 to 30 | 

Second part, led by results:

Row | IC50 (pSTAT3; [2]) [µM] | Structure (SMILES) | IC50 (STAT3) [µM] | IC50 (STAT6) [µM] | IC50 (pSTAT3; [1]) [µM]
5 | > 3 | O=C1CCC(c2ccc(OCC(=O)N3CCN(c4ccncc4C4CN(C(=O)[C@@H]5CC[C@@H]6CCC[C@H](NC(=O)c7cc8cc(C(F)(F)P(=O)(O)O)ccc8s7)C(=O)N65)C4)CC3)cc2)C(=O)N1 (stereo partly drawn) [Compound 28, ((2-(((3S,6S,9aS)-3-(3-(4-(4-(2-(4-(2,6-dioxopiperidin-3-yl)phenoxy)acetyl)piperazin-1-yl)pyridin-3-yl)azetidine-1-carbonyl)-5-oxooctahydro-1H-pyrrolo[1,2-a]azepin-6-yl)carbamoyl)benzo[b]thiophen-5-yl)difluoromethyl)phosphonic acid] | < 0.1 | 3 to 30 | 
6 | > 3 | CN(CCOc1ccc(C2CCC(=O)NC2=O)cc1)c1ccncc1C1CN(C(=O)[C@@H]2CC[C@@H]3CCC[C@H](NC(=O)c4cc5cc(C(F)(F)P(=O)(O)O)ccc5s4)C(=O)N32)C1 (stereo partly drawn) [Compound 21, ((2-(((3S,6S,9aS)-3-(3-(4-((2-(4-(2,6-dioxopiperidin-3-yl)phenoxy)ethyl)(methyl)amino)pyridin-3-yl)azetidine-1-carbonyl)-5-oxooctahydro-1H-pyrrolo[1,2-a]azepin-6-yl)carbamoyl)benzo[b]thiophen-5-yl)difluoromethyl)phosphonic acid] | < 0.1 | 3 to 30 | 
7 | > 3 | O=C1CCC(c2ccc(OCCOc3ccncc3C3CN(C(=O)[C@@H]4CC[C@@H]5CCC[C@H](NC(=O)c6cc7cc(C(F)(F)P(=O)(O)O)ccc7s6)C(=O)N54)C3)cc2)C(=O)N1 (stereo partly drawn) [Compound 9, ((2-(((3S,6S,9aS)-3-(3-(4-(2-(4-(2,6-dioxopiperidin-3-yl)phenoxy)ethoxy)pyridin-3-yl)azetidine-1-carbonyl)-5-oxooctahydro-1H-pyrrolo[1,2-a]azepin-6-yl)carbamoyl)benzo[b]thiophen-5-yl)difluoromethyl)phosphonic acid] | < 0.1 | 3 to 30 | 
8 | 0.1 to 1 | Cn1c(=O)n(C2CCC(=O)NC2=O)c2ccc(C#CCCC3CCN(c4ccncc4C4CN(C(=O)[C@@H]5CC[C@@H]6CCC[C@H](NC(=O)c7cc8cc(C(F)(F)P(=O)(O)O)ccc8s7)C(=O)N65)C4)CC3)cc21 (stereo partly drawn) [Compound 34, ((2-(((3S,6S,9aS)-3-(3-(4-(4-(4-(1-(2,6-dioxopiperidin-3-yl)-3-methyl-2-oxo-2,3-dihydro-1H-benzo[d]imidazol-5-yl)but-3-yn-1-yl)piperidin-1-yl)pyridin-3-yl)azetidine-1-carbonyl)-5-oxooctahydro-1H-pyrrolo[1,2-a]azepin-6-yl)carbamoyl)benzo[b]thiophen-5-yl)difluoromethyl)phosphonic acid] | < 0.1 | 0.3 to 3 | 
